Results reported in patent US10344026B2, “Compositions and methods of targeting mutant K-ras” (NANTBIO, INC., priority 2017, dated 2019).
pEC50, pIC50: −log10 of the molar value.

Legend:
Assay type in all cases: cell-based
[1] = system: phospho-ERK in Panc10.05 (G12D); assay: In-Cell Western phospho-ERK, Panc10.05; conditions: Homo sapiens, Panc1005, 1 h; Panc10.05, one hour treatment; read-out: In-Cell Western Panc10.05 (G12D) Erk (P)
How it was run: (§1)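 3000 cells/well, 18 hr pre-incubation; 1 hr compound exposure, 0.5% DMSO final. Formaldehyde fix, Triton permeabilization, primary Ab overnight 4° C, secondary 2 hr. Fluorescence imaging; EC50.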

[2] = system: phospho-Akt in A375 (Wild-type); assay: In-Cell Western phospho-Akt, A375; conditions: Homo sapiens, A-375, 1 h; A375, one hour treatment; read-out: In-Cell Western A375 (Wild-type) Akt (P)
How it was run: as §1

[3] = system: phospho-Akt in Panc10.05 (G12D); assay: In-Cell Western phospho-Akt, Panc10.05; conditions: Homo sapiens, Panc1005, 1 h; Panc10.05, one hour treatment; read-out: In-Cell Western Panc10.05 (G12D) Akt (P)
How it was run: as §1

[4] = system: phospho-ERK in Panc1 (G12D); assay: In-Cell Western phospho-ERK, Panc1; conditions: Homo sapiens, PANC-1, 1 h; Panc1, one hour treatment; read-out: In-Cell Western Panc1 (G12D) Erk (P)
How it was run: as §1

[5] = system: phospho-ERK in HCC827 (Wild-type); assay: In-Cell Western phospho-ERK, HCC827; conditions: Homo sapiens, 1 h; HCC827, one hour treatment; read-out: In-Cell Western HCC827 (Wild-type) Erk (P)
How it was run: as §1

Panc10.05-G12D = assay: Viability assay (CellTiterBlue, 72 hr) Panc10.05; conditions: Homo sapiens, Panc1005, GI50, CellTiterBlue, Panc10.05 K-Ras G12D, read-out: 72 hr Cell Viability Panc10.05 (G12D)
How it was run: (§2)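 Cells were seeded at 1000 per well and allowed 18 hr at 37 °C in CO2 before compound addition (final DMSO 0.5%). After 72 hr exposure, CellTiterBlue was added for 3 hr and fluorescence read at Ex550/Em590. GI50 values were calculated against DMSO (100%) and 100 uM tamoxifen (0%) controls.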

wild type K-Ras = target: T1, wild type K-Ras (Homo sapiens, UniProt P01116); assay: G-LISA Ras activation, 293H cells transfected with Ras wild-type, EGF stimulated; conditions: compound 1 hour, then 100 ng/ml EGF 2 minutes
T1 construct: expressed in transfected cells; host or cells: 293H cells
T1 sequence (P01116 whole entry): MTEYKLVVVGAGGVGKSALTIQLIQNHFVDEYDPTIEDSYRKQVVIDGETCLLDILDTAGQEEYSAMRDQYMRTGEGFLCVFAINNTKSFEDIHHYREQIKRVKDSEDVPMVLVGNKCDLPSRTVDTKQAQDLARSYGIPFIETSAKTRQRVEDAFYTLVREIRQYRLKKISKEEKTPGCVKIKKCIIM
How it was run: (§3)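 G-LISA Ras-GTP readout; 293H transfectants treated 1 h with 3.125-25 μM compound, EGF pulse (100 ng/ml, 2 min) for wild-type only.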

[6] = system: phospho-ERK in A375 (Wild-type); assay: In-Cell Western phospho-ERK, A375; conditions: Homo sapiens, A-375, 1 h; A375, one hour treatment; read-out: In-Cell Western A375 (Wild-type) Erk (P)
How it was run: as §1

K-Ras G12D = target: T2, K-Ras G12D (Homo sapiens, UniProt P01116, G12D); assay: G-LISA Ras activation, 293H cells transfected with G12D mutant; conditions: compound 1 hour
T2 construct: expressed in transfected cells; host or cells: 293H cells
T2 sequence (P01116 whole entry G12D): as the sequence (P01116 whole entry) above, with G12D counted along it
How it was run: as §3

[7] = system: phospho-Akt in HCC827 (Wild-type); assay: In-Cell Western phospho-Akt, HCC827; conditions: Homo sapiens, 1 h; HCC827, one hour treatment; read-out: In-Cell Western HCC827 (Wild-type) Akt (P)
How it was run: as §1

[8] = system: A375 (K-Ras wild type cell line); assay: Viability assay (CellTiterBlue, 72 hr) A375; conditions: Homo sapiens, A-375, GI50, CellTiterBlue
How it was run: as §2

HCT116-G31D = assay: Viability assay (CellTiterBlue, 72 hr) HCT116; conditions: Homo sapiens, HCT-116, GI50, CellTiterBlue, HCT116 K-Ras G13D, read-out: 72 hr Cell Viability HCT116 (G13D)
How it was run: as §2

[9] = system: Ishikawa (K-Ras wild type cell line); assay: Viability assay (CellTiterBlue, 72 hr) Ishikawa; conditions: Homo sapiens, GI50, CellTiterBlue, Ishikawa K-Ras wild-type
How it was run: as §2

Panc1-G12D = assay: Viability assay (CellTiterBlue, 72 hr) Panc1; conditions: Homo sapiens, PANC-1, GI50, CellTiterBlue, Panc1 K-Ras G12D, read-out: 72 hr Cell Viability Panc1 (G12D)
How it was run: as §2

[10] = system: HCC827 (K-Ras wild type cell line); assay: Viability assay (CellTiterBlue, 72 hr) HCC827; conditions: Homo sapiens, GI50, CellTiterBlue, HCC827 K-Ras wild-type
How it was run: as §2

[11] = system: phospho-Akt in Panc1 (G12D); assay: In-Cell Western phospho-Akt, Panc1; conditions: Homo sapiens, PANC-1, 1 h; Panc1, one hour treatment; read-out: In-Cell Western Panc1 (G12D) Akt (P)
How it was run: as §1

[12] = system: U87-MG (K-Ras wild type cell line); assay: Viability assay (CellTiterBlue, 72 hr) U87-MG; conditions: Homo sapiens, U-87 MG, GI50, CellTiterBlue, U87-MG K-Ras wild-type
How it was run: as §2

Compound | pEC50 [1] | pEC50 [2] | pEC50 [3] | pEC50 [4] | pEC50 [5] | pIC50 (Panc10.05-G12D) | IC50 (wild type K-Ras) [µM] | pEC50 [6] | IC50 (K-Ras G12D) [µM] | pEC50 [7] | pIC50 [8] | pIC50 (HCT116-G31D) | pIC50 [9] | pIC50 (Panc1-G12D) | pIC50 [10] | pEC50 [11] | pIC50 [12]
Cc1nn(C(C)C)cc1C(=O)Nc1nc(-c2ccc3c(c2)CCC(=O)N3Cc2cccnc2)cs1 [Compound 116, 1-isopropyl-3-methyl-N-(4-(2-oxo-1-(pyridin-3-ylmethyl)-1,2,3,4-tetrahydroquinolin-6-yl)thiazol-2-yl)-1-pyrazole-4-carboxamide] | 6.13 | < 4.60 | 5.70 | 5.52 | 5.52 | 5.92 | 6.1 | 4.92 | 2.5 | < 4.60 | 4.92 | < 4.60 | 4.68 | 5.52 | 5.40 | 4.66 | < 4.60
Cc1nn(-c2ccc(F)cc2)c(C)c1C(=O)Nc1nc(-c2ccc3c(c2)CCC(=O)N3)cs1 [Compound 54, 1-(4-fluorophenyl)-3,5-dimethyl-N-(4-(2-oxo-1,2,3,4-tetrahydroquinolin-6-yl)thiazol-2-yl)-1-pyrazole-4-carboxamide] | 5.52 | < 4.60 | < 4.60 | < 4.60 | < 4.60 | 5.22 | 10.6 | < 4.60 | 7.9 | < 4.60 | 4.59 | 4.64 | < 4.60 | 4.82 | 4.89 | < 4.60 | 4.82
Cc1nn(Cc2ccccc2)c(C)c1C(=O)Nc1nc(-c2ccc3c(c2)CCC(=O)N3)cs1 [Compound 56, 1-benzyl-3,5-dimethyl-N-(4-(2-oxo-1,2,3,4-tetrahydroquinolin-6-yl)thiazol-2-yl)-1H-pyrazole-4-carboxamide] | 5.52 | < 4.60 | 4.68 | 5.52 | 5.05 | 5.15 | 19.2 | 4.80 | 6.6 | < 4.60 | 5.40 | 5.22 | 5.15 | 5.05 | 5.15 | 4.57 | 4.92
CCCn1nc(C)c(C(=O)Nc2nc(-c3ccc4c(c3)CCC(=O)N4)cs2)c1C [Compound 55, 3,5-dimethyl-N-(4-(2-oxo-1,2,3,4-tetrahydroquinolin-6-yl)thiazol-2-yl)-1-propyl-1H-pyrazole-4-carboxamide] | 4.85 | < 4.60 | < 4.60 | < 4.60 | < 4.60 | < 4.60 | 6.5 | < 4.60 | 4 | < 4.60 | < 4.60 | < 4.60 | < 4.60 | < 4.60 | < 4.60 | < 4.60 | < 4.60
Cc1nn(-c2ccccc2)c(C)c1C(=O)Nc1nc(-c2ccc3c(c2)CCC(=O)N3)cs1 [Compound 53, 3,5-dimethyl-N-(4-(2-oxo-1,2,3,4-tetrahydroquinolin-6-yl)thiazol-2-yl)-1-phenyl-1H-pyrazole-4-carboxamide] | 5.52 | 5.00 | 4.82 | 4.80 | 4.85 | 5.00 | 7.7 | 5.22 | 6.7 | < 4.60 | 5.52 | 4.96 | 4.89 | 4.92 | 5.00 | < 4.60 | 4.82
COCCN1C(=O)CCc2cc(-c3csc(NC(=O)c4c(C)nn(C)c4C)n3)ccc21 [Compound 120, N-(4-(1-(2-methoxyethyl)-2-oxo-1,2,3,4-tetrahydroquinoinolin-6-yl)thiazol-2-yl)-1,3,5-trimethyl-1H-pyrazole-4-carboxamide] | 5.92 | < 4.60 | 5.30 | 5.30 | 5.52 | 6.10 | 11.9 | 4.62 | 3.4 | < 4.60 | 4.70 | < 4.60 | 5.00 | 5.40 | 5.40 | 4.59 | 4.89
CCn1cc(C(=O)Nc2nc(-c3ccc4c(c3)CCC(=O)N4Cc3cccnc3)cs2)c(C)n1 [Compound 115, 1-ethyl-3-methyl-N-(4-(2-oxo-1-(pyridin-3-ylmethyl)-1,2,3,4-tetrahydroquinolin-6-yl)thiazol-2-yl)-1H-pyrazole-4-carboxamide] | 5.70 | < 4.60 | 4.92 | 5.70 | 5.22 | 5.40 | 6.3 | 5.05 | 3.4 | < 4.60 | 5.22 | 5.00 | 5.05 | 5.05 | 4.96 | 4.74 | 4.77
Cc1nn(C(C)C)c(C)c1C(=O)Nc1nc(-c2ccc3c(c2)CCC(=O)N3Cc2cccnc2)cs1 [Compound 117, 1-isopropyl-3,5-dimethyl-N-(4-(2-oxo-1-(pyridin-3-ylmethyl)-1,2,3,4-tetrahydroquinolin-6-yl)thiazol-2-yl)-1H-pyrazole-4-carboxamide] | 6.04 | < 4.60 | 5.52 | 5.40 | 5.40 | 5.85 | 6.7 | 4.82 | 2.6 | < 4.60 | 4.85 | < 4.60 | 5.30 | 5.52 | 5.40 | 4.64 | < 4.60
COCCN1C(=O)CCc2cc(-c3csc(NC(=O)c4oc(C(C)C)nc4C)n3)ccc21 [Compound 111, 2-isopropyl-NA-(4-(1-(2-methoxyethyl)-2-oxo-1,2,3,4-tetrahydroquinolin-6-yl)thiazol-2-yl)-4-methyloxazole-5-carboxamide] | 6.12 | < 4.60 | 5.70 | 5.85 | 5.80 | 6.07 | 3.9 | 4.92 | 2.5 | < 4.60 | 5.15 | 4.62 | 5.40 | 5.70 | 5.70 | 4.80 | 5.15
